# Several values for one entry are separate records, joined by “and”; a condition that tells them apart may be missing. Equal entries are not always repeated. Entries after “also recorded” stand apart in the source; their conditions may differ. Residues, ends and D or L forms follow the SMILES beside them.
# Experiments:
# BAKΔTM = molecular target: T1, BAKΔTM (Homo sapiens, UniProt Q16611); assay: SPR binding of BH3 peptides to immobilized BAKΔTM; settings: for Kd: BAKΔTM immobilized on CM5 chip, steady-state analysis, three independent SPR assays, top concentrations not threefold above KD, read-out: Approximate dissociation constant ranges, KDs for BAK
# T1 construct: BAKΔTM (GenBank BC004431, residues 1–186); His6; made in house; host or cells: E. coli BL21
# T1 sequence (Q16611 1-186): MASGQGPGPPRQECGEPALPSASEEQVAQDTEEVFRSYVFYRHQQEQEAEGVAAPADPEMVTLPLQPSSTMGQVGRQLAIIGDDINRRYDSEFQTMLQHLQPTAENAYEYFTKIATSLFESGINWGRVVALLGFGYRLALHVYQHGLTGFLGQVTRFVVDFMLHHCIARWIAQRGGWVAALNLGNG
# BAK (His6-BAKΔTM) = assay: Liposome permeabilization assay (FITC-dextran release) with BAK; type: biochemical, human; settings: 50 nM BAK + 50 nM BH3 peptide
# Method: (§1) 1-Palmitoyl-2-oleoyl-sn-glycero-3-phosphocholine, 1-plamitoyl-2-oleoyl-sn-glycero-3-phosphoethanolamine, L-α-phosphatidyl-inositol, cardiolipin, cholesterol and 18:1 DGS-NTA(Ni) were mixed at a weight ratio of 36:22:9:8:20:5, and dried as thin films in glass test tubes under nitrogen for 16 h. To encapsulate FITC-labeled dextran 10 (F-d10), 50 mg F-d10 was added to 50 mg lipid in 1 ml of 150 KCl buffer containing 20 mM HEPES (pH 7.0), sonicated and extruded 15 times through a 400 nm polycarbonate membrane. Liposomes with F-d10 were further purified by gel filtration on Sephacryl S-300 HR (GE Healthcare). Phosphate was determined by colorimetric assay (Abcam, Cambridge, UK).
# (§2) Release of F-d10 from large unilamellar vesicles (LUVs) was monitored by fluorescence dequenching[25] using a fluorimetric plate reader (Thermo Scientific) with SoftMax Pro software. After addition of purified His6-BAKΔTM and/or the BH3 peptides to LUVs (final lipid concentration 10 µg ml^−1), 96 well plates were incubated at 37 °C and recorded (excitation 485 nm, emission 538 nm) every 10 sec. FITC-labeled dextran release was calculated using the equation ((Fsample − Fblank)/(FTriton − Fblank) × 100%), where Fsample, Fblank, and FTriton are the fluorescence recorded for the reagent-, buffer-, and 1% Triton-treated LUVs, respectively.
# human BAKΔTM = assay: Cytochrome c release from mitochondria of Bak−/−Bax−/− MEFs plus purified human BAKΔTM; type: biochemical; settings: 2 μM His6-BAKΔTM, 5 μM BH3 peptide, 25 °C, 90 min, immunoblotting
# Method: (§3) Mitochondria[43] purified from Bax^−/− MEFs were incubated with the indicated concentrations of navitoclax, S63845 or BH3 peptides at 25 °C for 90 min. After centrifugation (10,000 g, 15 min) and washing, supernatants and pellets were analyzed by immunoblotting. Alternatively, His6-BAKΔTM was dialyzed against mitochondria (mito) buffer (150 mM KCl, 5 mM MgCl2, 1 mM EGTA, 25 mM HEPES, pH 7.5) and diluted into mito buffer with 5 mM DTT. Mitochondria purified from Bak^−/−Bax^−/− MEFs were then incubated with 2 μM His6-BAKΔTM and the indicated BH3 peptides (5 μM) at 25 °C for 90 min. After centrifugation (10,000 × g, 15 min) and washing, supernatants and pellets were analyzed by immunoblotting.
# BAK F161A = settings: SPR, ~4000 RU immobilized, series of peptide concentrations, three independent experiments
# Text: (§4) Plasmids encoding BAKΔTM (GenBank BC004431, residues 1–186) in pET29b(+) was kindly provided by Qian Liu and Kalle Gehring (McGill University, Montreal, Canada)[34]. Plasmids encoding BAK 15–186 and the corresponding BAK mutants were generated using site-directed mutagenesis. All plasmids were subjected to automated sequencing to verify the described alterations and confirm that no additional mutations were present.
# (§5) Proteins for SPR were further purified by FPLC on Superdex S200, concentrated in a centrifugal concentrator (Centricon, Millipore), dialyzed against Biacore buffer (10 mM 4-(2-hydroxyethyl)-1-piperazineethanesulfonic acid (HEPES; pH 7.4), 150 mM NaCl, 0.05 mM ethylenediaminetetraacetic acid (EDTA) and 0.005% (w/v) polysorbate 20) and stored at 4 °C for <48 h before use.
# (§6) BAKΔTM or mutants were immobilized on a CM5 chip using a Biacore T200 biosensor with a blank channel as a negative control. Binding assays were performed at 25 °C using Biacore buffer containing the indicated BH3 peptides injected at 30 µl per min for 1 min using a Biacore T200 Control Software. Proteins were allowed to dissociate during perfusion with Biacore buffer at 30 µl per min for 10 min and then desorbed with 2 M MgCl2. All binding affinities were derived by Biacore T200 Evaluation Software using Steady State analysis (Biacore, Uppsala, Sweden).
# BAK F93E = settings: SPR, about 4000 RU immobilized, series of peptide concentrations, three independent experiments
# Text: as §4, §5, §6
# BAK G126S = settings: SPR, about 4000 RU immobilized, series of peptide concentrations, three independent experiments
# Text: as §4, §5, §6
# BAK H164A/H165A = settings: SPR, ~4000 RU immobilized, series of peptide concentrations, three independent experiments
# Text: as §4, §5, §6
# BAKΔTM F161A = assay: Liposome permeabilization assay with BAKΔTM F161A; type: biochemical, human; settings: 50 nM BAKΔTM F161A vs WT, 50 nM BH3 peptide, three independent experiments
# Method: as §1, §2
# [1] = system: Bak in mitochondria from Bax−/− MEFs; assay: Cytochrome c release from mitochondria of Bax−/− MEFs; type: biochemical, mouse
# Method: as §3
# [2] = 90 min at 25 °C, immunoblotting of supernatants and pellets
smiles,measurement,setting,value
CC[C@H](C)[C@H](NC(=O)[C@H](CS)NC(=O)[C@H](CCC(N)=O)NC(=O)[C@H](CC(C)C)NC(=O)[C@H](CCCCN)NC(=O)[C@H](CCCNC(=N)N)NC(=O)[C@H](C)NC(=O)[C@@H](NC(=O)[C@H](CCC(N)=O)NC(=O)[C@@H](NC(=O)[C@H](CCC(=O)O)NC(=O)[C@H](C)NC(=O)[C@@H](N)CCC(N)=O)C(C)C)[C@@H](C)CC)C(=O)N[C@@H](C)C(=O)N[C@@H](CC(=O)O)C(=O)N[C@@H](CCC(N)=O)C(=O)N[C@@H](Cc1ccccc1)C(=O)N[C@@H](Cc1c[nH]cn1)C(=O)N[C@@H](CCCNC(=N)N)C(=O)N[C@@H](CC(C)C)C(=O)N[C@@H](Cc1c[nH]cn1)C(=O)N[C@H](C(=O)N[C@@H](CCC(N)=O)C(=O)N[C@@H](CCC(N)=O)C(=O)N[C@@H](Cc1c[nH]cn1)C(=O)N[C@@H](CCC(N)=O)C(=O)O)C(C)C [BMF BH3] (H-QAEVQIARKLQCIADQFHRLHVQQHQ-OH; N-terminus and C-terminus assumed),Kd,"BAKΔTM; SPR, 25 °C",0.4 to 0.6 µM and < 1 µM
same,"Association and dissociation, direct comparison of SPR curves","BAKΔTM; peptides at 1600 nM, immobilized BAKΔTM",fastest association with BAKΔTM and slowest dissociation
same,BAK-dependent release of liposome contents (FITC-dextran release),"BAK (His6-BAKΔTM); 37 °C, fluorescence dequenching, BAK alone 28%, mean of three independent experiments",46%
same,"Cytochrome c release, in words",human BAKΔTM,intermediate amount
same,Effect of BAK F161A mutation on peptide binding (maximum RU) vs WT BAKΔTM,BAK F161A,diminished binding
same,Effect of BAK F93E mutation on peptide binding (maximum RU) vs WT BAKΔTM,BAK F93E,did not appreciably affect binding
same,Effect of BAK G126S mutation on peptide binding (maximum RU) vs WT BAKΔTM,BAK G126S,did not appreciably affect binding
same,Effect of BAK H164A/H165A mutation on peptide binding (maximum RU) vs WT BAKΔTM,BAK H164A/H165A,diminished binding
same,Effect of F161A mutation on BAK-mediated liposome permeabilization initiated by the peptide,BAKΔTM F161A,markedly decreased
CC[C@H](C)[C@H](NC(=O)[C@H](CS)NC(=O)[C@H](C)NC(=O)[C@H](CC(C)C)NC(=O)[C@H](CCCNC(=N)N)NC(=O)[C@H](CC(C)C)NC(=O)[C@H](C)NC(=O)[C@H](CC(C)C)NC(=O)[C@H](C)NC(=O)[C@H](CC(=O)O)NC(=O)[C@H](CO)NC(=O)CNC(=O)[C@@H](N)CCC(=O)O)C(=O)NCC(=O)N[C@@H](CC(=O)O)C(=O)N[C@@H](CCC(=O)O)C(=O)N[C@@H](CCSC)C(=O)N[C@@H](CC(=O)O)C(=O)N[C@H](C(=O)N[C@@H](CO)C(=O)N[C@@H](CC(C)C)C(=O)N[C@@H](CCCNC(=N)N)C(=O)N[C@@H](C)C(=O)N1CCC[C@H]1C(=O)N[C@@H](CCCNC(=N)N)C(=O)O)C(C)C [BIK BH3] (H-EGSDALALRLACIGDEMDVSLRAPR-OH; N-terminus and C-terminus assumed),Kd,"BAKΔTM; SPR, 25 °C",> 10 µM
same,"Binding to BAKΔTM by SPR, in words","BAKΔTM; SPR, immobilized BAKΔTM, 25 °C",did not detect interactions; also recorded: undetectable
same,"Increase of BAK-mediated liposome release, in words",BAK (His6-BAKΔTM),did not appreciably increase
same,Concentration that induced cytochrome c release,"[1]; 90 min at 25 °C, immunoblotting of supernatants and pellets, 10 μM highest concentration tested",10 µM
same,Fold less active than the HRK BH3 peptide in cytochrome c release,"[1]; MCL1 inhibitor S63845 added together with peptide, response to reviewers",about 10 fold
same,"Cytochrome c release, in words",human BAKΔTM,barely induced cytochrome c release
CC1(C)CCC(c2ccc(Cl)cc2)=C(CN2CCN(c3ccc(C(=O)NS(=O)(=O)c4ccc(N[C@H](CCN5CCOCC5)CSc5ccccc5)c(S(=O)(=O)C(F)(F)F)c4)cc3)CC2)C1 [navitoclax],"Cytochrome c release, in words",[1]; [2],failed to induce cytochrome c release
same,Effect on BIK or HRK BH3-induced cytochrome c release,[1]; navitoclax applied along with BIK BH3 or HRK BH3,did not enhance
"CC[C@H](C)[C@H](NC(=O)[C@H](CCC(=O)O)NC(=O)[C@H](CCCNC(=N)N)NC(=O)[C@H](C)NC(=O)[C@H](Cc1c[nH]c2ccccc12)NC(=O)[C@@H](N)CCC(N)=O)C(=O)NCC(=O)N[C@@H](C)C(=O)N[C@@H](CCC(N)=O)C(=O)N[C@@H](CC(C)C)C(=O)N[C@@H](CCCNC(=N)N)C(=O)N[C@@H](CCCNC(=N)N)C(=O)N[C@@H](CCSC)C(=O)N[C@@H](C)C(=O)N[C@@H](CC(=O)O)C(=O)N[C@@H](CC(=O)O)C(=O)N[C@@H](CC(C)C)C(=O)N[C@@H](CC(N)=O)C(=O)N[C@@H](C)C(=O)N[C@@H](CCC(N)=O)C(=O)N[C@@H](Cc1ccc(O)cc1)C(=O)N[C@@H](CCC(=O)O)C(=O)N[C@@H](CCCNC(=N)N)C(=O)N[C@@H](CCCNC(=N)N)C(=O)N[C@@H](CCCNC(=N)N)C(=O)N[C@@H](CCC(N)=O)C(=O)O [PUMA BH3, reference compound]",Kd,"BAKΔTM; SPR, 25 °C",2 to 2.8 µM
same,Effect of F161A mutation on BAK-mediated liposome permeabilization initiated by the peptide,BAKΔTM F161A,did not affect
Cc1c(-c2c(-c3ccc(F)o3)sc3ncnc(O[C@H](Cc4ccccc4OCc4ccnn4CC(F)(F)F)C(=O)O)c23)ccc(OCCN2CCN(C)CC2)c1Cl [S63845],"Cytochrome c release, in words",[1]; [2],failed to induce cytochrome c release
